SMILES strings stand for the structures.

Experiment [1] concerns 22AG (DNA, G4) AGGGTTAGGGTTAGGGTTAGGG
Kind of experiment: photometric titration. The settings on record: K+ 110 mM; K-phosphate buffer, pH 7.0, 5% v/v DMSO; compound 20 µM.

For experiment [2], the system named is c-kit (DNA, G4) AGGGAGGGCGCTGGGAGGAGGG
As to the kind of experiment: photometric titration. The settings on record: K+ 110 mM; K-phosphate buffer, pH 7.0, 5% v/v DMSO; compound 20 µM.

Experiment [3] relates to a2 (DNA, G4) ACAGGGGTGTGGGGACAGGGGTGTGGGG
Kind of experiment: photometric titration. The settings on record: K+ 110 mM; K-phosphate buffer, pH 7.0, 5% v/v DMSO; compound 20 µM.

The subject of experiment [4] is c-myc (DNA, G4) TGAGGGTGGGTAGGGTGGGTA
As to the kind of experiment: photometric titration. The settings on record: K+ 110 mM; K-phosphate buffer, pH 7.0, 5% v/v DMSO; compound 20 µM.

Experiment [5] relates to FmycT (DNA, G4) TGAGGGTGGGTAGGGTGGGTA
As to the kind of experiment: FRET melting (fluorescence). Particulars: K+ 10 mM, Na+ 10 mM, Li+ 90 mM; cacodylate, pH 7.0; ligand:DNA ratio 5; DNA 0.2 µM (Figure S6; Table 2 prints 0.2 mM); error ±0.5 °C.

Experiment [6] has as its system FkitT (DNA, G4) AGGGAGGGCGCTGGGAGGAGGG
Kind of experiment: FRET melting (fluorescence). Particulars: K+ 10 mM, Na+ 10 mM, Li+ 90 mM; cacodylate, pH 7.0; ligand:DNA ratio 5; DNA 0.2 µM (Figure S6; Table 2 prints 0.2 mM); error ±0.5 °C.

Take `COc1ccc2cc3[n+](cc2c1OP(=O)(O)O)CCc1cc2c(cc1-3)OCO2`: the Kb is 5.0 ± 0.6 × 10^5 M^-1 in experiment [1], 6.9 ± 0.2 × 10^5 M^-1 in experiment [2], 6.7 ± 0.2 × 10^5 M^-1 in experiment [3] and 5.9 ± 0.4 × 10^5 M^-1 in experiment [4]. Moreover, the “∆Tm” value in experiment [5] stood at 2.2 °C; in experiment [6], 1.0 °C.
